Assay results published in the OPERA property sets (Mansouri et al. 2018).

| Compound | logP |
| --- | --- |
| O=[N+]([O-])c1cccc(-c2cnc(SCCc3c[nH]cn3)[nH]2)c1 | 2.43 |
| Clc1ccc(-c2cnc(SCCc3c[nH]cn3)[nH]2)cc1 | 3.66 |
| Brc1cccc(-c2cnc(SCCc3c[nH]cn3)[nH]2)c1 | 3.76 |
| NC(=O)c1ccc(-c2cnc(SCCc3c[nH]cn3)[nH]2)cc1 | 1.4 |
| O=S(=O)(Oc1ccc(-c2cnc(SCCc3c[nH]cn3)[nH]2)cc1)c1ccccc1 | 3.72 |
| c1ccc(-c2cnc(SCCc3c[nH]cn3)[nH]2)cc1 | 2.62 |
| CCCc1cccc(-c2cnc(SCCc3c[nH]cn3)[nH]2)c1 | 3.7 |
| CCCCOc1ccc(-c2cnc(SCCc3c[nH]cn3)[nH]2)cc1 | 4.11 |
| NC(=O)c1cccc(-c2cnc(SCCc3c[nH]cn3)[nH]2)c1 | 1.61 |
| O=[N+]([O-])c1ccc(-c2cnc(SCCc3c[nH]cn3)[nH]2)cc1 | 2.75 |
| CCCc1ccc(-c2cnc(SCCc3c[nH]cn3)[nH]2)cc1 | 4.09 |
